The record followed here is publication PMC12136037, “Type II kinase inhibitors that target Parkinson’s disease–associated LRRK2” (Science Advances, 2025).

Holding throughout (assay): DSF 100 kinase selectivity screen;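 also: compound tested at 20 µM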
Holding throughout (format): binding

In experiment [1] the target is T1, ~100 representative kinases (Homo sapiens, UniProt Q9Y2H1).
T1 construct: Recombinant protein kinase domains with a concentration of 2 μM
As to conditions: Protein STK38L; DSF; average of three replicates. The gist of the method: (§1)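 Each kinase domain, at 2 μM, is mixed with 20 μM test compound and SYPRO Orange in Hepes (20 mM, pH 7.5) with 500 mM NaCl. Temperature is then raised at 3°C/min and fluorescence-monitored unfolding yields the melting temperature change, ΔTm in degrees Celsius.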

The target of experiment [2] is T2, ~100 representative kinases (Homo sapiens, UniProt P48730).
T2 construct: Recombinant protein kinase domains with a concentration of 2 μM
T2 sequence (P48730 whole entry, the tested form may be a part): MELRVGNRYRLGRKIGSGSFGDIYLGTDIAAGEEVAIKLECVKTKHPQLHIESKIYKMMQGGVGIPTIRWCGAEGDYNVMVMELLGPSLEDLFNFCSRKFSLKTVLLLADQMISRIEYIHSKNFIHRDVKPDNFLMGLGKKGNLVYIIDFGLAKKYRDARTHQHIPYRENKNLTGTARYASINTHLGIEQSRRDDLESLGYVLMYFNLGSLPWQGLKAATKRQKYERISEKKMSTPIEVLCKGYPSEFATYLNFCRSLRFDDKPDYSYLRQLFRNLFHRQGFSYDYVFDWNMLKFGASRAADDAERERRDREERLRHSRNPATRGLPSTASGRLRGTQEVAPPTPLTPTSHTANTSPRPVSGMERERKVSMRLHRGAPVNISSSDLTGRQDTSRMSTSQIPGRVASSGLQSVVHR
The following applies: Protein CSNK1D; average of three replicates. The gist of the method:
as §1

Experiment [3] deals with T3, ~100 representative kinases (Homo sapiens, UniProt Q9UEE5).
T3 construct: Recombinant protein kinase domains with a concentration of 2 μM
T3 sequence (Q9UEE5 1-414): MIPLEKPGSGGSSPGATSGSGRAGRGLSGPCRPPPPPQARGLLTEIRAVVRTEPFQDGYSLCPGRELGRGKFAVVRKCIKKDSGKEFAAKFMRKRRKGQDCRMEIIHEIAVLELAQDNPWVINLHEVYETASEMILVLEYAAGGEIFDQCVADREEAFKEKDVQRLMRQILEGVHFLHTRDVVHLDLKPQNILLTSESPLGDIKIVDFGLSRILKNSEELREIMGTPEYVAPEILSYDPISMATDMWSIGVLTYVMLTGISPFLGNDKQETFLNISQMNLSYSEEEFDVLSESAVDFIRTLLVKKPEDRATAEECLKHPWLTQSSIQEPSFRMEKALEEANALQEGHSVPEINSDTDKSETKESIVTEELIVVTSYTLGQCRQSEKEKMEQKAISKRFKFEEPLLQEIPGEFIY
As to conditions: Protein STK17A; DSF; average of three replicates. The gist of the method: as §1

The target in experiment [4] is T4, ~100 representative kinases (Homo sapiens, UniProt P51813).
T4 construct: Recombinant protein kinase domains with a concentration of 2 μM
T4 sequence (P51813 1-675): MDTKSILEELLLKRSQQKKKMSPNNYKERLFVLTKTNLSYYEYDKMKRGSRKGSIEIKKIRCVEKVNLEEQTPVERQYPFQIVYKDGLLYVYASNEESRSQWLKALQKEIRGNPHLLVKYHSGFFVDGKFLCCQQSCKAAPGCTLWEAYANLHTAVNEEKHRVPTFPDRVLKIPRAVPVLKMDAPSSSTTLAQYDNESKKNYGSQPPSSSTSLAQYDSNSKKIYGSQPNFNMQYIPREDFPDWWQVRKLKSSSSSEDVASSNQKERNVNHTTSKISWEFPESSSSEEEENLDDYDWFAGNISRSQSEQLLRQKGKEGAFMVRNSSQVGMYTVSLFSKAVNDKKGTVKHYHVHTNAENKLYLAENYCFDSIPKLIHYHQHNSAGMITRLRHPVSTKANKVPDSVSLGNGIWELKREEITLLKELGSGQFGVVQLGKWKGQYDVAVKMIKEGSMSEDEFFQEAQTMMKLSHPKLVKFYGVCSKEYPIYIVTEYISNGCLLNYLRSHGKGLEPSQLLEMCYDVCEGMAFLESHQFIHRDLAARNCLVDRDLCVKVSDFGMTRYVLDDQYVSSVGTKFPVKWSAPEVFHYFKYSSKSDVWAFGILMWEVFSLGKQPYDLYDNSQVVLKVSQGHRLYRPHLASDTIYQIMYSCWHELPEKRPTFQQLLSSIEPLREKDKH
As to conditions: Protein BMX; average of three replicates. A digest of the protocol:
as §1

For experiment [5], the target named is T5, ~100 representative kinases (Homo sapiens, UniProt Q5VT25).
T5 construct: Recombinant protein kinase domains with a concentration of 2 μM
T5 sequence (Q5VT25 whole entry, the tested form may be a part): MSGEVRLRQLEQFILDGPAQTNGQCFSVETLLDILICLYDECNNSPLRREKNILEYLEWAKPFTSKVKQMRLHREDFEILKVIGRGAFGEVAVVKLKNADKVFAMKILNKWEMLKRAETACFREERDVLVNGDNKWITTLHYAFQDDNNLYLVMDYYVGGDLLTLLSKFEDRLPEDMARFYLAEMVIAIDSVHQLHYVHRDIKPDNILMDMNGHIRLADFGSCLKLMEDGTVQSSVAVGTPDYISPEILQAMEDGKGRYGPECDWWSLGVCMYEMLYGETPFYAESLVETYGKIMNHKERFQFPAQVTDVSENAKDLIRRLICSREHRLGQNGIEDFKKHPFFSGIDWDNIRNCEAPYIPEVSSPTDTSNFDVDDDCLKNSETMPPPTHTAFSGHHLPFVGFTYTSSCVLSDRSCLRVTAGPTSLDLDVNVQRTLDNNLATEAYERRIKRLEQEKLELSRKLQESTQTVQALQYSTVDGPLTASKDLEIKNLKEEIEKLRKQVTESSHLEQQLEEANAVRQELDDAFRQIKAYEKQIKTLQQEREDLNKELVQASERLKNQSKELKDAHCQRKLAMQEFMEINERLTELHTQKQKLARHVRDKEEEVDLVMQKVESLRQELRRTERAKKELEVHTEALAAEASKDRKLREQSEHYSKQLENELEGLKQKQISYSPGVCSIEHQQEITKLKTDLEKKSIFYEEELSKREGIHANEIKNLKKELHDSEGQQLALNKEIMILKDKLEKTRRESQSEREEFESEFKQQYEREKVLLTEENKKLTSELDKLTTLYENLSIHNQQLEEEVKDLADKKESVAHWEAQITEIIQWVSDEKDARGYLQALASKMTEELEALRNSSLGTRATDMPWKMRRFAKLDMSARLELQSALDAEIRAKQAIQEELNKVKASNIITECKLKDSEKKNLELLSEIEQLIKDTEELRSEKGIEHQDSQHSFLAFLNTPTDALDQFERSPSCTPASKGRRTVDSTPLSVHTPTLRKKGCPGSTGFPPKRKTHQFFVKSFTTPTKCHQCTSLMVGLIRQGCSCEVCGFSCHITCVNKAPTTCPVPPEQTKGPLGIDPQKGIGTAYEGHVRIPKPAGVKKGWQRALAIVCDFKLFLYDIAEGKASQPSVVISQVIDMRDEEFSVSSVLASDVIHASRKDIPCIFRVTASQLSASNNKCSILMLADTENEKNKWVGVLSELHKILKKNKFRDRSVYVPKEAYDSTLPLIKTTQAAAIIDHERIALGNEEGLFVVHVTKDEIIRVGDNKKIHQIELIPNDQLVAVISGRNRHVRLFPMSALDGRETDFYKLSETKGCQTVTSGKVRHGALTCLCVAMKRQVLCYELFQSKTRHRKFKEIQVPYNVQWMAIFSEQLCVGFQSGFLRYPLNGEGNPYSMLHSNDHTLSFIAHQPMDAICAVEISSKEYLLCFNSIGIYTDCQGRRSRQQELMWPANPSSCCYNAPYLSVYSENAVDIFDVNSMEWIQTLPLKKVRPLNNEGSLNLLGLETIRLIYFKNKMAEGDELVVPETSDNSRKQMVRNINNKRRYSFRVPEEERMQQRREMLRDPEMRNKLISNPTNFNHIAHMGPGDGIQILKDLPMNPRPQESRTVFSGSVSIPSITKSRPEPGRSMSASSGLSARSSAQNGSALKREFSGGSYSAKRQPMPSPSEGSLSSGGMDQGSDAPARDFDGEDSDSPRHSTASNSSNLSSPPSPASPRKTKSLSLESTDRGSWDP
The following applies: Protein CDC42BPA; average of three replicates. A digest of the protocol: as §1

In experiment [6] the target is T6, ~100 representative kinases (Homo sapiens, UniProt P27448).
T6 construct: Recombinant protein kinase domains with a concentration of 2 μM
T6 sequence (P27448 whole entry, the tested form may be a part): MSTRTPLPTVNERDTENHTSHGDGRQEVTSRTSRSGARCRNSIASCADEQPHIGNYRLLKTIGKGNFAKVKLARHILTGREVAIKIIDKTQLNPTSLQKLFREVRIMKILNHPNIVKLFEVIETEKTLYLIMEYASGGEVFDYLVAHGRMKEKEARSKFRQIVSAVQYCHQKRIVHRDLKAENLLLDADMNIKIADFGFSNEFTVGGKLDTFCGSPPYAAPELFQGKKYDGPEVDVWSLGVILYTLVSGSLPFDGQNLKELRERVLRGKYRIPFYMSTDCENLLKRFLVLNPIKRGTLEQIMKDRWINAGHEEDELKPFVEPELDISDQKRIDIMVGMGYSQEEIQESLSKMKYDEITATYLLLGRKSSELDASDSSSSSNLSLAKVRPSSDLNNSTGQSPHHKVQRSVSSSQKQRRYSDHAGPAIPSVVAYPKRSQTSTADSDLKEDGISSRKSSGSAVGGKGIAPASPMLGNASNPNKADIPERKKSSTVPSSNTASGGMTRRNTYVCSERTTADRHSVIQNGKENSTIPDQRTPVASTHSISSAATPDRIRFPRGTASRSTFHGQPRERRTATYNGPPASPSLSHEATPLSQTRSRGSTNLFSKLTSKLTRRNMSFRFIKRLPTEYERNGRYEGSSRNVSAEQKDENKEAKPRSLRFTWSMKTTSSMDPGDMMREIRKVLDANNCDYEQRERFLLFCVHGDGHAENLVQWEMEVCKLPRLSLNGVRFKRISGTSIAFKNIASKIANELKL
The following applies: protein MARK3; average of three replicates. A digest of the protocol: as §1

The target of experiment [7] is T7, ~100 representative kinases (Homo sapiens, UniProt Q9UEW8).
T7 construct: Recombinant protein kinase domains with a concentration of 2 μM
As to conditions: Protein STK39; DSF; average of three replicates. The gist of the method:
as §1

T1 sequence (Q9Y2H1 whole entry, the tested form may be a part): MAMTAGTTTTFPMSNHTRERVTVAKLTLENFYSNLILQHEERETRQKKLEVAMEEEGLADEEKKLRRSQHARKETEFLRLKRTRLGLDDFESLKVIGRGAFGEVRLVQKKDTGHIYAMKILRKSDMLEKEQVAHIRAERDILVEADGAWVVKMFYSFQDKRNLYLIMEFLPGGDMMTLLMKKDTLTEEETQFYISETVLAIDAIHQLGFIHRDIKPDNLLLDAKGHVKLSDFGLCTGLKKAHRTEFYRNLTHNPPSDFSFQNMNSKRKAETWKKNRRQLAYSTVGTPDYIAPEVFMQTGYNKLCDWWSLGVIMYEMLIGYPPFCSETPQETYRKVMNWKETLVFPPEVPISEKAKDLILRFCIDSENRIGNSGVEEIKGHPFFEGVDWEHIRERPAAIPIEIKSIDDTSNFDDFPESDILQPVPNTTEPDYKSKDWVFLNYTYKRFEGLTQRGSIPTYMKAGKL

On to `Cc1ccc(C(=O)Nc2ccc(CN3CCN(C)CC3)c(C(F)(F)F)c2)cc1C#Cc1c[nH]c2ncnc(N3CCOCC3)c12` [Compound 1], for which the dTm in experiment [1] is 2.95 K; in experiment [2], 0.0454 K; in experiment [3] it was 2.74 K; in experiment [4] it was 1.60 K; in experiment [5] it was -1.51 K; in experiment [6], 1.49 K. In addition, the dTm in experiment [7] stood at 3.69 K.
In the case of `O=C(Nc1ccc(F)cc1)C1(C(=O)Nc2cccc(-c3c[nH]c4ncnc(N5CCOCC5)c34)c2)CC1` [Compound 2], the dTm in experiment [1] is given as -0.20 K; in experiment [2] it was 2.09 K; in experiment [3], 0.36 K; in experiment [4], 0.39 K; in experiment [5], -0.78 K; in experiment [6] it was 4.79 K. Besides, in experiment [7], the dTm is given as 1.95 K.
In the case of `O=C(Nc1cccc(-c2c[nH]c3ncnc(N4CCOCC4)c23)c1)c1cccn(-c2ccc(F)cc2)c1=O` [Compound 4], the dTm in experiment [1] is recorded as -0.37 K; in experiment [2], 5.34 K; in experiment [3], -0.07 K; in experiment [4], 1.71 K; in experiment [5], -0.81 K; in experiment [6], 4.45 K. For the same compound, the dTm in experiment [7] amounted to 4.19 K.
On to `Cc1cc(NC(=O)C2(C(=O)Nc3ccc(F)cc3)CC2)cc(-c2c[nH]c3ncnc(N4CCOCC4)c23)c1` [Compound 6], for which the dTm in experiment [1] was 0.00 K; in experiment [2] it was 1.10 K; in experiment [3] it was 0.40 K; in experiment [4], 0.51 K; in experiment [5] it was -0.90 K; in experiment [6] it was 4.35 K. Moreover, the dTm in experiment [7] is 1.36 K.
For the compound `O=C(Nc1cccc(-c2c[nH]c3ncnc(N4CCOCC4)c23)c1)C1(C(=O)Nc2cccc3c2CCC3)CC1` [Compound 11], the dTm in experiment [1] is 0.00 K; in experiment [2], 1.21 K; in experiment [3], 1.27 K; in experiment [4], 1.17 K; in experiment [5] it was -1.26 K; in experiment [6] it was 3.89 K. In addition, in experiment [7], the dTm stood at 1.05 K.
`O=C(Nc1ccccc1)C1(C(=O)Nc2cccc(-c3c[nH]c4ncnc(N5CCOCC5)c34)c2)CC1` [Compound 12]: the dTm in experiment [1] is 0.29 K; in experiment [2], 1.61 K; in experiment [3], 0.26 K; in experiment [4], 0.86 K; in experiment [5], -0.16 K; in experiment [6] it was 4.89 K. This compound displayed a dTm in experiment [7] of 2.09 K.
As for `O=C(Nc1ccc(Cl)cc1)C1(C(=O)Nc2cccc(-c3c[nH]c4ncnc(N5CCOCC5)c34)c2)CC1` [Compound 13], the dTm in experiment [1] is on record as 0.49 K; in experiment [2], 2.99 K; in experiment [3], 1.64 K; in experiment [4] it was 0.67 K; in experiment [5], -0.08 K; in experiment [6], 7.72 K. This compound also displayed a dTm in experiment [7] of 2.32 K.
On to `Cc1ccc(NC(=O)C2(C(=O)Nc3cccc(-c4c[nH]c5ncnc(N6CCOCC6)c45)c3)CC2)cc1` [Compound 14], for which the dTm in experiment [1] is on record as 0.07 K; in experiment [2], 1.58 K; in experiment [3], -0.61 K; in experiment [4], 0.15 K; in experiment [5], -1.21 K; in experiment [6] it was 4.90 K. The dTm in experiment [7] is reported as 1.16 K.
With `CCc1ccc(NC(=O)C2(C(=O)Nc3cccc(-c4c[nH]c5ncnc(N6CCOCC6)c45)c3)CC2)cc1` [Compound 15], the dTm is given as 0.73 K in experiment [1]; 1.30 K in experiment [2]; -0.28 K in experiment [3]; 0.11 K in experiment [4]; -0.98 K in experiment [5]; 6.20 K in experiment [6]. In experiment [7], this compound returned a dTm of 1.18 K.
For the compound `COc1ccc(NC(=O)C2(C(=O)Nc3cccc(-c4c[nH]c5ncnc(N6CCOCC6)c45)c3)CC2)cc1` [Compound 16], the dTm in experiment [1] is recorded as -0.19 K; in experiment [2], 0.92 K; in experiment [3] it was -0.48 K; in experiment [4], -0.18 K; in experiment [5], -1.10 K; in experiment [6], 2.45 K. This compound also yielded a dTm in experiment [7] of -0.15 K.
For the compound `O=C(Nc1cccc(-c2c[nH]c3ncnc(N4CCOCC4)c23)c1)C1(C(=O)Nc2ccc(F)c(F)c2)CC1` [Compound 17], the dTm is on record as 0.13 K in experiment [1]; 2.63 K in experiment [2]; 0.99 K in experiment [3]; 0.61 K in experiment [4]; -0.72 K in experiment [5]; 5.81 K in experiment [6]. Also, the dTm in experiment [7] is 1.80 K.
Take `O=C(Nc1cccc(-c2c[nH]c3ncnc(N4CCOCC4)c23)c1)C1(C(=O)Nc2ccc(F)c(Cl)c2)CC1` [Compound 18]: the dTm in experiment [1] was 0.59 K; in experiment [2], 3.14 K; in experiment [3], 2.92 K; in experiment [4], 1.13 K; in experiment [5] it was -0.25 K; in experiment [6], 7.07 K. Besides, the dTm in experiment [7] turned out to be 2.24 K.
For `O=C(Nc1cccc(-c2c[nH]c3ncnc(N4CCOCC4)c23)c1)C1(C(=O)Nc2ccc(F)c(Br)c2)CC1` [Compound 19], the dTm in experiment [1] stood at 0.00 K; in experiment [2] it was 0.43 K; in experiment [3] it was 2.37 K; in experiment [4], 0.24 K; in experiment [5], 0.14 K; in experiment [6], 7.11 K. Further, the dTm in experiment [7] is reported as 1.45 K.
With `Cc1cc(NC(=O)C2(C(=O)Nc3cccc(-c4c[nH]c5ncnc(N6CCOCC6)c45)c3)CC2)ccc1F` [Compound 20], the dTm is 0.36 K in experiment [1]; 3.49 K in experiment [2]; 2.25 K in experiment [3]; 1.40 K in experiment [4]; -1.13 K in experiment [5]; 8.85 K in experiment [6]. In experiment [7], this compound came in with a dTm of 3.28 K.
With `COc1cc(NC(=O)C2(C(=O)Nc3cccc(-c4c[nH]c5ncnc(N6CCOCC6)c45)c3)CC2)ccc1F` [Compound 21], the dTm in experiment [1] is -0.18 K; in experiment [2], 3.13 K; in experiment [3], 0.20 K; in experiment [4], 0.38 K; in experiment [5], -1.17 K; in experiment [6], 6.63 K. The same compound returned a dTm in experiment [7] of 1.92 K.
With `Cc1ccc(C(=O)Nc2ccc(CN3CCN(C)CC3)c(C(F)(F)F)c2)cc1C#Cc1cnc2[nH]ncc2c1` [GZD-824, reference compound], the dTm in experiment [1] was 2.07 K; in experiment [2], 1.29 K; in experiment [3], 0.16 K; in experiment [5] it was -1.37 K; in experiment [6] it was 3.47 K; in experiment [7], 4.29 K.
For the compound `Cc1ccc(C(=O)Nc2ccc(CN3CCN(C)CC3)c(C(F)(F)F)c2)cc1C#Cc1cnc2cccnn12` [Ponatinib, reference compound], the dTm in experiment [5] is -1.37 K.
Regarding `CNC(=O)c1cc(Oc2ccc(NC(=O)Nc3cc(C(C)(C)C)nn3-c3ccc4ncccc4c3)c(F)c2)ccn1` [Rebastinib, reference compound], the dTm in experiment [2] is recorded as -1.01 K; in experiment [3], 3.53 K; in experiment [4], 7.16 K; in experiment [5], 0.18 K; in experiment [6] it was 0.56 K; in experiment [7], 1.13 K.
On to `CN[C@@H]1C[C@H]2O[C@@](C)([C@@H]1OC)n1c3ccccc3c3c4c(c5c6ccccc6n2c5c31)C(=O)NC4` [Staurosporine], for which the dTm in experiment [2] was found to be 2.05 K; in experiment [5], 3.20 K; in experiment [7], 9.01 K.
